Source: article PMC4593063 (Bioorganic & medicinal chemistry letters, 2015)

Legend:
[1] = 19F NMR hydration study in aqueous solution; type: physicochemical; conditions: pH 7.7, 24 h
An. gambiae [2] = assay: fumigation toxicity assay; parameters: species or system Anopheles gambiae; conditions: in vivo
[3] = evaporative weight loss at room temperature; type: physicochemical; conditions: open 1 dram vial, fume hood
WT AgAChE = WT AgAChE (Anopheles gambiae, UniProt Q869C3); assay: modified Ellman assay, WT AgAChE inhibition; type: biochemical
An. gambiae [4] = assay: injection toxicity; type: in vivo, Anopheles gambiae; conditions: injection into mosquito thorax
G119S AgAChE [5] = type: biochemical, Anopheles gambiae; conditions: 5g: 60 min incubation; dichlorvos: time not stated
[6] = test system: susceptible (G3) strain adult An. gambiae; assay: tarsal contact toxicity, WHO treated paper protocol; type: in vivo, Anopheles gambiae; conditions: 40% mortality at 1000 μg/mL vs propoxur LC50 39 μg/mL
G119S AgAChE [7] = molecular target: G119S AgAChE (Anopheles gambiae, UniProt Q869C3, G280S); type: biochemical; conditions: 60 min incubation

Structure (SMILES) | % hydrated (19F NMR) [1] [%] | % mass lost by evaporation ([3]; 1 day) [%] | % mass lost by evaporation ([3]; 6 days) [%] | % mass lost by evaporation ([3]; 12 days) [%] | Injection mortality at 50 ng/insect (An. gambiae [4]) [%] | further results
CC(C)(C)c1cccc(C(=O)C(F)(F)F)c1 [Compound 5c] | 88 | – | – | – | – | –
CCC(CC)n1cc(C(=O)C(F)(F)F)cn1 [Compound 5g] | 67 | 9 ± 1 | 33 ± 1 | 68 ± 1 | 83 ± 6 | fumigation toxicity fold less than dichlorvos (An. gambiae [2]): > 100 fold; % mass lost by evaporation ([3]; 28 days): 99 ± 1%; potency at WT AgAChE fold greater than dichlorvos (WT AgAChE): 100 fold; ratio of G119S and WT AgAChE IC50 values (G119S AgAChE [5]): roughly 2,500 fold; tarsal contact toxicity fold lower relative to propoxur [6]: ~ 25 fold
CCC(CC)n1cc(C(=O)C(F)F)cn1 [Compound 9g] | – | – | – | – | 65 ± 4 | WT AgAChE inhibition (IC50) as summarised in text (WT AgAChE; incubation time not specified): single digit nanomolar; G119S AgAChE IC50 fold lower than that of dichlorvos (G119S AgAChE [7]): 2 fold; G119S AgAChE IC50 fold lower than that of trifluoromethyl ketone 5g (G119S AgAChE [7]): 13 fold
CC(C)Cn1cc(C(=O)C(F)F)cn1 [Compound 9i] | 22 | – | – | – | – | –
CCC(CC)n1cc(C(=O)CF)cn1 [Compound 10g] | – | – | – | – | 21 ± 8 | WT AgAChE IC50 fold higher than that of propoxur (WT AgAChE; 10 minute incubation time): roughly 2 fold
CC(C)Cn1cc(C(=O)CF)cn1 [Compound 10i] | < 5 | – | – | – | – | –
COP(=O)(OC)OC=C(Cl)Cl [dichlorvos] | – | 2 ± 1 | 16 ± 1 | 32 ± 1 | – | % mass lost by evaporation ([3]; 28 days): 51 ± 1%
CNC(=O)Oc1ccccc1OC(C)C [propoxur] | – | 0 ±1 | 0 ± 1 | 1 ± 1 | – | Injection LD50 (An. gambiae [4]; 95% confidence interval in parenthesis): 0.24 (0.20–0.34) ng/insect
